The values below come from publication PMC7778552, “A Double-Edged Sword: The Anti-Cancer Effects of Emodin by Inhibiting the Redox-Protective Protein MTH1 and Augmenting ROS in NSCLC” (Journal of Cancer, 2021).

The experiment concerns the target T1, MutT homolog 1 (MTH1) (Homo sapiens, UniProt P36639).
T1 construct: gene NUDT1; N-terminal His-tagged, expressed in E. coli BL21-codon plus
As to the kind of experiment: SPR with immobilized purified MTH1 (amine coupling). The experiment is classed as binding.

The structures appear in SMILES notation.

Compound `Cc1cc(O)c2c(c1)C(=O)c1cc(O)cc(O)c1C2=O` [emodin, 1,3,8-trihydroxy-6-methylanthraquinone] showed a Kd of 22.2 ± 0.68 µM.

What is called Kd is the free concentration of one partner at which half of the binding sites on the other are occupied at equilibrium, for simple one-to-one binding. A higher Kd goes with a looser complex.
